# Reference: patent US5234815A, “Monoclonal antibodies against cytosolic thyroid hormone binding protein” (The United States of America as represented by the …, priority 1991, dated 1993)
# Assays:
# [1] = target: T1, purified p58 (Homo sapiens, UniProt P14618); experiment: Binding of [125I]T3 and analogs to purified p58; settings: competition with [125I]T3, equilibrium conditions
# T1 construct: p 58 was purified from A431 cells; endogenous in cells; host or cells: A431 cells (purified native protein)
# T1 sequence (P14618 whole entry): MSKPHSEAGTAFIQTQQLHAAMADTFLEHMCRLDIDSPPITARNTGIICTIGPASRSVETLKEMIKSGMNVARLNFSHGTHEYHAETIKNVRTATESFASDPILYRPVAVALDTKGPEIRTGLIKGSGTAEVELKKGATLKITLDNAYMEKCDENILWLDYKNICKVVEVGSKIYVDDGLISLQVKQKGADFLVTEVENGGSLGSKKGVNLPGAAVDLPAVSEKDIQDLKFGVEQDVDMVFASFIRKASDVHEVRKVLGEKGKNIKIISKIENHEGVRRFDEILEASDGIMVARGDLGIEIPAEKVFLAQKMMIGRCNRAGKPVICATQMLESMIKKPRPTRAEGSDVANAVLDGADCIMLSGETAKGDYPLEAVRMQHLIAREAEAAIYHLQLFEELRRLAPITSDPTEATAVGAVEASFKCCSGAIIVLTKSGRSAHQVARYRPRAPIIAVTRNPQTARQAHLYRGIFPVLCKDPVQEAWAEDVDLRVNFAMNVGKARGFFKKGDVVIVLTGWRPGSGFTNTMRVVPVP
# Procedure: Binding data were analyzed by least squares analysis as described in Horiuchi et al, supra.
# [2] = target: T2, p58 (Homo sapiens, UniProt P14618); experiment: T3 binding in subcellular fractions of A431 cells; settings: for Specific [125I]T3 bound: 50 ug protein
# T2 construct: endogenous in cells; host or cells: A431 cells
# T2 sequence (P14618 2-531 limits assumed): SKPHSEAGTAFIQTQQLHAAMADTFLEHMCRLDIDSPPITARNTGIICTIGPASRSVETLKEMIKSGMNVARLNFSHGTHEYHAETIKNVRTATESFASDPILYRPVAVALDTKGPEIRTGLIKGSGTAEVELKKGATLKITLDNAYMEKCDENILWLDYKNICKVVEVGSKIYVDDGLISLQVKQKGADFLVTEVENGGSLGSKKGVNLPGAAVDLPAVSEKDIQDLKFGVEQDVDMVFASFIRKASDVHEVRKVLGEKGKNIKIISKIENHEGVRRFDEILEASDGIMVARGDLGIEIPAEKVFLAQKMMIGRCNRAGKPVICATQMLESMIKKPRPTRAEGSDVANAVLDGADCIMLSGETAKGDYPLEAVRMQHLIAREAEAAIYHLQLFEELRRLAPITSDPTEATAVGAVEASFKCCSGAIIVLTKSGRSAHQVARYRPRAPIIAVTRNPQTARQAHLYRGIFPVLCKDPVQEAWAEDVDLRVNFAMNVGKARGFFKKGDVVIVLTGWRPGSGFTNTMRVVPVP
# Procedure: Overnight cultures of A431 cells (1×10^7 cells/150 mm dish) were washed with 30 ml of PBS (Ca^++ and Mg^++ free). Cells were harvested with a rubber policeman and pelleted. The cell pellet was resuspended in 2 ml of homogenization buffer (0.25M sucrose, 20 mM Tris, 1.1 mM MgCl2, pH 7.85) and homogenized in a tight dounce homogenizer. After centrifugation at 800 xg for 10 min, the supernatant was further centrifuged at 110,000 xg for 90 min at 4° C. (supernatant A). The pellet was resuspended by pipetting in 1 ml of the homogenizing buffer. The suspension was centrifuged at 110,000 xg for 90 min (supernatant B). The pellet was extracted with 1 ml of 3 mM CHAPS by stirring for 30 min. The suspension was centrifuged at 110,000 xg for 90 min (supernatant C).
compound,measurement,setting,value
N[C@@H](Cc1ccc(Oc2cc(I)c(O)c(I)c2)c(I)c1)C(=O)O [reverse-T3],"affinity for p58, fold less than that of T3",[1],10 fold
N[C@@H](Cc1cc(I)c(Oc2cc(I)c(O)c(I)c2)c(I)c1)C(=O)O [T4],affinity for p58 compared with T3,[1],affinity similar to that of T3
N[C@@H](Cc1cc(I)c(Oc2ccc(O)c(I)c2)c(I)c1)C(=O)O [[^125 I]T3],"Specific [125I]T3 bound, % of total","[2]; 110,000 xg Pellet",6 % of total
same,Specific [125I]T3 bound,"[2]; 110,000 xg Pellet",0.17 dpm(× 10^-4)
same,"Specific [125I]T3 bound, % of total","[2]; 110,000 xg Supernatant",94 % of total
same,Specific [125I]T3 bound,"[2]; 110,000 xg Supernatant",2.5 dpm(× 10^-4)
